Assay results as given in a melting point compilation (Tetko et al.; mined from patent text by program, amines drawn as free bases though some values may be those of a salt).

| melting point | Compound |
| --- | --- |
| 155 to 157 °C | CC(C)/[N+]([O-])=C/c1ccc(O)cc1O |
| 265 °C | O=C1Nc2c(Cl)cc(Cl)c3cccc1c23 |
| 56.6 to 59.7 °C | CCOC(=O)C1CN(C(=O)OCc2ccccc2)CC1=O (stereo not drawn) |
| 269 to 271 °C | O=C1NC(=O)c2c1cc1ccc3c(c1c2-c1ccc(F)cc1)OCO3 |
| 148 to 150 °C | CCCCc1nn2c(c1Cc1ccc(C(=O)O)cc1)CCCC2 |
| 134 to 137 °C | NC(=O)C(Nc1ccc(I)cc1)c1ccccc1 (stereo not drawn) |
| 142 to 145 °C | CC(=O)SCC(CCCc1ccccc1)C(=O)Nc1cccc(C(=O)O)c1 (stereo not drawn) |
| 36 to 40 °C | CC(=O)OCCSCCCC(=O)NC/C=C\COc1cc(CN2CCCCC2)ccn1 |
| 220 to 222 °C | O=C1CCC(N2Cc3c(OCc4ccc(CN5CCN(S(=O)(=O)c6ccccc6)CC5)cc4)cccc3C2=O)C(=O)N1 (stereo not drawn) |
| 24 °C | CC(=O)CCC(CC=O)C(C)(C)OC(C)=O (stereo not drawn) |
| 265 to 266 °C | O=c1[nH]c2cc(Cl)ccc2n(C2CCCCC2)c1=O |
| 176 °C | O=C(c1cccs1)c1cccc2nc(N[C@@H]3CCc4ccccc43)ccc12 |
| 97 °C | CCCCCCCCCCCCC1CC(=C(C#N)C#N)CCC1=C(C#N)C#N (stereo not drawn) |
| 114 °C | CCC(CC)COc1ccc(S(=O)(=O)C2(C(=O)NO)CCN(Cc3ccccc3)CC2)cc1 |
| 224 to 225 °C | Cn1ncc(C(=O)N2CCOCC2)c1C(=O)Nc1cc2nc(-c3ccccc3)nn2cc1F |
| 159 to 161 °C | Clc1ccc(Sc2cc(NCCN3CCOCC3)nc(-c3ccc(Cl)cc3)n2)cc1 |
| 192 °C | CCCCSc1nc(CCC)n(Cc2ccc(-c3ccccc3S(=O)(=O)NC(=O)NCc3ccccc3)cc2)c1C(=O)C(=O)O |
| 198 to 199 °C | OCCCNc1cc(Nc2ccc(N3CCOCC3)cc2)ncn1 |
| 196 °C | CNC1(Cc2ccccc2)C(=O)Nc2ccc(Cl)cc21 (stereo not drawn) |
| 75 to 76 °C | N#Cc1cccc2c1NCCC2 |
| 148 to 150 °C | CNC(=O)CCCCSc1nccc(NC(N)=NCC(F)(F)F)n1 |
| 78 to 79.5 °C | CCCCCCCCCCCCCC=CCC(O)C(=O)O (stereo not drawn) |
| 138 to 139 °C | Cn1c(CNC[C@H]2CCCO2)cc2cc(NC(=O)c3ccc(OCC4CC4)cc3)ccc21 |
| 149 to 150 °C | Cn1c(=O)ccc2cc(COc3cccc(C4(C#N)CCOCC4)c3)ccc21 |

| melting point | Compound |
| --- | --- |
| 156 to 158 °C | N#CC(C#N)=C1N(CCCN2CCCCC2)CCN1C1CCN(Cc2ccccc2)CC1 |
| 95 to 96 °C | CCOC(=O)C1Cc2cc3c(CC)noc3c(Cl)c2O1 (stereo not drawn) |
| 229 to 230 °C | CS(=O)(=O)Nc1cccc(N=C2NCCN2)c1 |
| 113 to 116 °C | Cn1c2c(c3ccccc31)OCC2=O |
| 101 to 102 °C | CC(C)(C)c1ccc2c(c1)C(=O)CCC2 |
| 182 to 185 °C | COc1ccc(-c2ccc3c(C#N)c(OC)ccc3c2)cc1 |
| 127 to 130 °C | CCOC(=O)C(CC(=O)O)(Cc1cn(C)c2ccccc12)C(=O)OCC |
| 165 to 166 °C | Nc1ccc2ccc(-c3cccc(Br)c3)nc2n1 |
| 154 to 155 °C | O=C(c1ccc(-c2ccccc2)cc1)C1(n2cncn2)CC1 |
| 62 to 63 °C | CCCCCCCCCC(=O)C1C(=O)CC(C)OC1=O (stereo not drawn) |
| 112 to 114 °C | CC#CCOc1ccc(S(=O)(=O)NC2(C(=O)O)CCCCC2)cc1 |
| 188 to 190 °C | Cc1cc2nncn2nc1-c1ccccc1 |
| 200 to 202 °C | N#CCC1CCN(c2ccc(N3C[C@@H](Cn4cc(C#N)nn4)OC3=O)cc2F)CC1 |
| 109 to 111 °C | Cc1ccccc1-c1nc(-c2ccccc2Cl)n[nH]1 |
| 90 to 91 °C | COC(=O)n1c(Cl)nc2c(C)cccc21 |
| 188 to 189 °C | CN(C)Cc1cc2c(s1)Oc1ccccc1N=C2N1CCN(C)CC1 |
| 210 °C | OC1CSC(Oc2cncc(-c3cc4ccccc4o3)c2)C(O)C1O (stereo not drawn) |
| 107 to 109 °C | CC(C)(Nc1c(Cl)cccc1[N+](=O)[O-])C(=O)O |
| 151 to 152 °C | O=C(CCCCCOc1ccc(-c2ccccc2)cc1)NO |
| 177 °C | COCCC(=O)N[C@H]1CC[C@H](CCN2CCN(c3ncc(C)c4occc34)CC2)CC1 |
| 200 °C | O=C(O)c1ncsc1-c1cc(F)cc(F)c1 |
| 233 to 234 °C | O=C(/C=C/c1ccc(O)c(C(F)(F)F)c1)/C=C/c1ccc(O)c(C(F)(F)F)c1 |
| 102 to 110 °C | CS(=O)(=O)c1ccc(-c2cnn(-c3ccc(Cl)c(F)c3)c(=O)c2-c2ccc(F)cc2)cc1 |
| 132 to 134 °C | COC(=O)c1ccc(NC(=O)c2ccccc2-c2ccccc2)cc1Cl |

| melting point | Compound |
| --- | --- |
| 168 to 169 °C | COc1cc2c3c(cccc3c1)C(=O)c1ccccc1-2 |
| 225 to 226 °C | O=C1c2cccnc2N(N2CCOCC2)C2=NCCN12 |
| 165 to 166 °C | CCC#CCCOc1ccc(/C=C/C(=O)Nc2ccccc2C(=O)O)cc1OC |
| 140 °C | COc1ccc(Cn2cc[nH]c2=S)cc1 |
| 218 to 220 °C | CC(C)(C)C(NC(=O)Cc1ccc(Cl)cc1)NC(=NC#N)c1cccc2ncccc12 (stereo not drawn) |
| 97 to 98 °C | CC(C)C(C(=O)O)c1ccc(Br)cc1 (stereo not drawn) |
| 205 to 210 °C | CC1(C)Cc2nc3ccccc3n2C(=O)N1 |
| 248 to 252 °C | O=c1c2ccccc2sc(-c2ccncc2)[n+]1[O-] |
| 218 to 220 °C | CC(CC1=C(c2cccc(O)c2)CCCNC1=O)N1CCCCC1 (stereo not drawn) |
| 273 to 274 °C | Cn1ncc(/C=C/C(=O)Nc2ccc(CC(=O)NN)cc2)c1-c1ccc(F)cc1 |
| 106 to 108 °C | COC(=O)C1(C(=O)Nc2ccc(Br)cc2C)CC1 |
| 177 to 178 °C | COc1ccc(Cl)cc1C(=O)NC1COc2cc(C)ccc2C1=O (stereo not drawn) |
| 172 to 174 °C | CC[C@H](C)[C@H](NS(=O)(=O)c1cccc2ccccc12)C(=O)N[C@@H](Cc1c[nH]c2ccccc12)C(=O)OC |
| 309 to 313 °C | NC(=O)c1nn(-c2ccc(F)cc2)c2c1CCc1ccc(NC(=O)c3cc(N4CCOCC4)ncc3Cl)cc1-2 |
| 162 to 163 °C | COC(=O)C1=C(C)NC(=O)N(C(=O)OC(C)C)C1c1cccc(Cl)c1Cl (stereo not drawn) |
| 133 to 135 °C | CN1C[C@H]2Cc3ccc(Cl)cc3[C@H](c3ccc(Cl)cc3)[C@H]2C1 (racemic) |
| 188 to 192 °C | CC[C@@]1(CC(=O)N[C@@H](C)c2ccccc2)CCCN2CCc3c([nH]c4ccccc34)[C@@H]21 |
| 156 to 158 °C | Nc1ncc(Br)c(NCC2(CO)CCC2)n1 |
| 196 to 197 °C | CCOC(=O)C1=C(O)C(C)(CC)CNC1=O (stereo not drawn) |
| 136 °C | COc1c(C(=O)O)[nH]c2cccc(C)c12 |
| 107 to 109 °C | CC(=O)NCc1ccc(/C=C/C(c2cc(Cl)cc(Cl)c2)C(F)(F)F)cc1 (stereo not drawn) |
| 144 to 147 °C | CS(=O)(=O)Nn1c(=O)[nH]c2cc(C(F)(F)F)c(-n3cnc(C(F)(F)F)c3)cc2c1=O |
| 234 to 236 °C | Cc1n[nH]c2cc(-c3nn(C(C)c4oc5ccc(F)cc5c(=O)c4-c4cccc(F)c4)c4ncnc(N)c34)ccc12 (stereo not drawn) |
| 140 to 141 °C | C=C1CCC2C3CCC4CC(OC(C)=O)CCC4(C)C3C(=O)CC12C (stereo not drawn) |

| melting point | Compound |
| --- | --- |
| 166 to 168 °C | CN(C)C(=O)COC[C@@H]1CC(c2ccc(-c3ccc(N4C[C@H](Cn5ccnn5)OC4=O)cc3F)cn2)=NO1 |
| 229 to 232 °C | Cc1oc2c(NC(=O)c3c(Cl)ccc(Cl)c3C(N)=O)cccc2c1C |
| 190 to 193 °C | Nc1ccc2c(=O)n3c(nc2c1)C(=Cc1ccccc1)CCC3 |
| 195 to 197 °C | CCOC(=O)c1[nH]c2cc(Cl)cc(Cl)c2c1NCCC(=O)c1ccccc1 |
| 38 to 43 °C | COc1ccc(C2=NN(c3ccc(OCCCCBr)cc3)C(=O)[C@@H]3CC=CC[C@H]23)cc1OC |
| 99 to 101 °C | OC(CCN1CCC(c2ccccc2)CC1)c1ccc(-c2ccccc2)cc1 (stereo not drawn) |
| 111 to 112 °C | CC=NN(C)C1=NOCc2ccc(Cl)cc21 |
| 153 °C | COC(=O)CCC(C)C1CCC2C3CCC4CC(N=[N+]=[N-])CCC4(C)C3CC(=O)C12C (stereo not drawn) |
| 215 to 217 °C | COc1ccc(C(=O)Nc2c(Cl)cncc2Cl)c2c3ccccc3n(Cc3ccccc3)c12 |
| 207 °C | O=c1ccc(-c2ccc(O)cc2)cn1Cc1ccc(Cl)cc1F |
| 174 °C | COc1ccc(C2CSc3ccccc3NC2=O)cc1OC (stereo not drawn) |
| 116 to 118 °C | CCCN(CCC)CC(=O)OC1CC2(C)C(C(C)=O)CCC2C2CCC3CC(O)CCC3(C)C12 (stereo not drawn) |
| 114 to 115 °C | Cc1ccc(-c2nc3ccc(CN4CCN(C)CC4)cc3[nH]2)cc1C#Cc1cnc2cccnn12 |
| 196 to 198 °C | CCOC(=O)NC(=O)C1c2ccccc2Oc2c1cccc2C(F)(F)F (stereo not drawn) |
| 125 to 127 °C | CC(C)c1cccc(C(C)C)c1NC(=O)CN1CCN(CCCSc2nc3ncccc3o2)CC1 |
| 93 to 94 °C | CCOC(=O)c1onc(OCC)c1CN1C(=O)c2ccccc2C1=O |
| 165 °C | COc1ccc(OC)c(C(=O)/C=C/C(=C/C(=O)O)c2ccccc2)c1 |
| 128 to 130 °C | CCCC(=O)c1cnc2c(OC)cccc2c1Nc1ccccc1COC |
| 180 to 181 °C | Clc1ccc(-c2cc(C3CCN(Cc4ccc5ccccc5c4)CC3)n[nH]2)cc1 |
| 91 to 93 °C | COc1cccc(CSc2nnc(-c3ccc4c(c3)CCO4)o2)c1 |
| 163 to 165 °C | Cc1noc(-c2cn(-c3cccc(-c4ccccc4)c3)cn2)n1 |
| 54 to 56 °C | COC1CCC(OS(C)(=O)=O)C(CN=[N+]=[N-])O1 (stereo not drawn) |
| 149 to 151 °C | O=S1(=O)NCNc2c(Cl)cc(Cl)cc21 |
| 65 to 67 °C | C=CCOc1cc(OCc2ccc3ccccc3c2)cc(C(=O)c2nccs2)c1 |

| Compound | melting point |
| --- | --- |
| Cc1c(N2C(=O)C[C@@](O)(C3CC3)[C@@H]2C)ccc(C#N)c1Cl | 231 to 236 °C |
| NC(c1ccc2c(c1)OCO2)P(O)O (stereo not drawn) | 235 to 236 °C |
| CN1C(=O)[C@H](NC(=O)/C=C/c2ccccc2Br)N=C(c2ccccc2)c2ccccc21 | 113 to 116 °C |
| CN(C)CCc1c[nH]c2ccc(C#CCOCc3ccccc3)cc12 | 93 to 95 °C |
| CC(=O)Nc1nc(C)n2c1CN=C(c1ccccc1F)c1cc(Cl)ccc1-2 | 175 to 178 °C |
| COc1ccc(-c2nc(N)sc2CCN2CC=C(c3ccccc3)CC2)cc1 | 163 °C |
| O=[N+]([O-])c1ccccc1C1=NCC(=S)Nc2sc(Cl)cc21 | 213 to 215 °C |
